According to patent publication US20160339026A1, “TOPICAL COMPOSITIONS COMPRISING MODULATORS OF TRPM8” (Senomyx, Inc., priority 2015, published 2016):
Where two headings read alike, the source gives them in different places. Blank lines part the entries; values can stand above or below the compound they belong to.

Columns and labels:
hTRPM8 [1] = target: T1, hTRPM8 (Homo sapiens, UniProt Q7Z2W7); conditions: Table 1.8; according to WO2011/061330 A2 E Table C 3-14; cited from earlier work
T1 construct: expressed in transfected cells
T1 sequence (Q7Z2W7 whole entry): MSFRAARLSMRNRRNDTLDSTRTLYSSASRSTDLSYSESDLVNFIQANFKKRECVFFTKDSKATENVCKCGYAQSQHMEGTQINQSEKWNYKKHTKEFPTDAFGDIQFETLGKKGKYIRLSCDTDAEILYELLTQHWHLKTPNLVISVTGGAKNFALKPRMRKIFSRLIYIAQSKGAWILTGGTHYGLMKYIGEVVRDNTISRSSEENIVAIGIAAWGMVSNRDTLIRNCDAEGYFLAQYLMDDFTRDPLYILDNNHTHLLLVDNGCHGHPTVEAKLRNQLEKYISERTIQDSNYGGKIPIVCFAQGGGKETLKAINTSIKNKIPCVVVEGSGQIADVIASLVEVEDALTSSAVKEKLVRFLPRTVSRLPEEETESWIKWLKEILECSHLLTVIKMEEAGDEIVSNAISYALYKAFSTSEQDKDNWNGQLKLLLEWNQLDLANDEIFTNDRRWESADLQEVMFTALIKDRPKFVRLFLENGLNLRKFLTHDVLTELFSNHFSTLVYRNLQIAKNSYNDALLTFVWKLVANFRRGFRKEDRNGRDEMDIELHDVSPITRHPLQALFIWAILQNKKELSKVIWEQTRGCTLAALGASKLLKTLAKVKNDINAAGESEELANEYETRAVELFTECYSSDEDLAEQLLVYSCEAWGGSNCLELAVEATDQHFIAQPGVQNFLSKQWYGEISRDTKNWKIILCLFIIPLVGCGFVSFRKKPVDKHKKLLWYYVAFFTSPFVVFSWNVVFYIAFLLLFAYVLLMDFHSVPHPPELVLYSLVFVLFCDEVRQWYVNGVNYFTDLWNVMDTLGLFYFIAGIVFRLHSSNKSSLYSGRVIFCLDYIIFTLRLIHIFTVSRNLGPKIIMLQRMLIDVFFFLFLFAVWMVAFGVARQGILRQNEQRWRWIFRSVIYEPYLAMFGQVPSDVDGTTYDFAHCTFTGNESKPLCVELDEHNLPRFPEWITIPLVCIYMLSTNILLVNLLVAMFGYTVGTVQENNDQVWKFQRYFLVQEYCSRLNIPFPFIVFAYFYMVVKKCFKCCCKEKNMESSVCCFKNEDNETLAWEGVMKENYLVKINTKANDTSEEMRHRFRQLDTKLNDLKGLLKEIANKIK

[2] = Sensory study of topically applied Compound 101; type: in vivo, human
Experimental: The response of subjects to topically applied Compound 101 was assessed. Subjects were exposed to a solid formulation of Compound 101 in small quantities. […] In another assessment, subjects were exposed to a dilute airborne microparticulate Compound 101.

hTRPM8 [3] = target: T1, hTRPM8; experiment: Cell line stably expressing hTRPM8, agonist assay, compounds of Formula (I); type: cell-based; conditions: Table 1.7
Description: A mammalian cell line derivative which stably expresses hTRPM8 was used in biological assays in association with testing the present compounds with cool-tasting or -feeling properties (Servant et al. US 2007/0259354 A1 and references cited therein). […] The present compounds have shown strong activity as agonists of hTRPM8. Assay results for compounds are illustrated in Table 1.1 below. Specifically, the Examples listed in Table 1.1, i.e., Compounds A1 to Compounds U10 are the specific compounds above that fall within Formula (I).

SMILES: CCN(Cc1ccccc1)C(=O)C=Cc1ccc2c(c1)OCO2
EC50 (hTRPM8 [1]): 1.5 µM

SMILES: Cc1ccc(OCC(=O)N(Cc2cccs2)c2ccn[nH]2)cc1 [Compound 101]
Sensation reported by subjects ([2]; exposure to a solid formulation in small quantities): all subjects reported a “tingling” and “cooling” sensation
Sensation reported by subjects ([2]; exposure to dilute airborne microparticulate compound): exhibited a “cooling smell” and induced “tingling sensation” on the skin

SMILES: O=C(COc1ccc(Br)cc1)N(Cc1ccccc1)c1ccccn1 [drawing 56 R=4-Br R1=2-Pyridyl Ar=Phenyl]
EC50 (hTRPM8 [3]): 15.6 µM
EC50 Ratio (WS-3) (hTRPM8 [3]): 0.2

SMILES: Cc1ccc(OCC(=O)N(C)Cc2ccccc2)cc1 [drawing 56 R=4-Me R1=Methyl Ar=Phenyl]
EC50 (hTRPM8 [3]): > 100 µM

Continued, values first:

EC50 (hTRPM8 [3]): 4.72 µM
EC50 Ratio (WS-3) (hTRPM8 [3]): 0.6
SMILES: Cc1ccc(OCC(=O)N(Cc2ccccc2)c2ccccn2)cc1 [drawing 56 R=4-Me R1=2-Pyridyl Ar=Phenyl]

EC50 (hTRPM8 [3]): 0.776 µM
EC50 Ratio (WS-3) (hTRPM8 [3]): 4.2
SMILES: CCN(Cc1ccccc1)C(=O)COc1ccc(C)cc1 [drawing 56 R=4-Me R1=Ethyl Ar=Phenyl]

EC50 (hTRPM8 [3]): 9.21 µM
EC50 Ratio (WS-3) (hTRPM8 [3]): 0.5
SMILES: CCN(Cc1ccccc1)C(=O)COc1ccccc1 [drawing 56 R=H R1=Ethyl Ar=Phenyl]
